Assay results: ChEMBL document CHEMBL5214900, “Design, Synthesis, and Biological Evaluation of Membrane-Active Bakuchiol Derivatives as Effective Broad-Spectrum Antibacterial Agents” (J Med Chem, 2021)
Values after ≈ are worked out from the molar mass of the structure shown.

What was measured:
Staphylococcus aureus [1] = test: Antibacterial activity against Staphylococcus aureus ATCC 29213 assessed as inhibition of bacterial growth incubated for 24 hrs by CLSI based broth dilution method; assay type: functional
Staphylococcus aureus [2] = test: Antibacterial activity against methicillin-resistant Staphylococcus aureus N315 assessed as inhibition of bacterial growth incubated for 24 hrs by CLSI based broth dilution method; assay type: functional
[3] = Hemolytic activity in rabbit RBC measured after 1 hrs by multimode reader assay; assay type: toxicity, cell-based, Oryctolagus cuniculus, Erythrocyte; settings: rabbit red blood cells (erythrocytes)
Pseudomonas aeruginosa = test: Antibacterial activity against Pseudomonas aeruginosa ATCC 9027 assessed as inhibition of bacterial growth incubated for 24 hrs by CLSI based broth dilution method; assay type: functional
Klebsiella pneumoniae [4] = test: Antibacterial activity against Klebsiella pneumoniae ATCC 10031 assessed as inhibition of bacterial growth incubated for 24 hrs by CLSI based broth dilution method; assay type: functional
Klebsiella pneumoniae [5] = test: Antibacterial activity against Klebsiella pneumoniae ATCC 14581 assessed as inhibition of bacterial growth incubated for 24 hrs by CLSI based broth dilution method; assay type: functional
Staphylococcus aureus [6] = test: Antibacterial activity against Staphylococcus aureus ATCC 29213 assessed as fold increase in MIC incubated for 24 hrs in presence of 4.5 mM K+ by CLSI based broth dilution method; assay type: functional
Staphylococcus aureus [7] = test: Antibacterial activity against Staphylococcus aureus ATCC 29213 assessed as fold increase in MIC incubated for 24 hrs in presence of 2.5 mM Ca2+ by CLSI based broth dilution method; assay type: functional
Staphylococcus aureus [8] = test: Antibacterial activity against Staphylococcus aureus ATCC 29213 assessed as fold increase in MIC incubated for 24 hrs in presence of 1 mM Mg2+ by CLSI based broth dilution method; assay type: functional
Staphylococcus aureus [9] = test: Antibacterial activity against Staphylococcus aureus NCTC10442 assessed as fold increase in MIC incubated for 24 hrs in presence of 4.5 mM K+ by CLSI based broth dilution method; assay type: functional
Acinetobacter baumannii = test: Antibacterial activity against Acinetobacter baumannii ATCC 17978 assessed as fold increase in MIC incubated for 24 hrs in presence of 4.5 mM K+ by CLSI based broth dilution method; assay type: functional
Escherichia coli [10] = test: Antibacterial activity against Escherichia coli ATCC 25922 assessed as fold increase in MIC incubated for 24 hrs in presence of 140 mM Na+ by CLSI based broth dilution method; assay type: functional
Staphylococcus aureus [11] = test: Bactericidal activity against Staphylococcus aureus ATCC 29213 assessed as log reduction in viable bacteria at 8 times MIC measured after 8 hrs by time-killing assay; assay type: functional
Escherichia coli [12] = test: Bactericidal activity against Escherichia coli ATCC 25922 assessed as log reduction in viable bacteria at 4 times MIC measured after 2 hrs by time-killing assay; assay type: functional
Cell membrane [13] = test: Disruption of membrane integrity in Staphylococcus aureus ATCC 29213 assessed as increase in fluorescence intensity at 1 to 8 times MIC by SYTOX green dye based fluorescence analysis; settings: DDE = dose-dependent effect
Cell membrane [14] = test: Disruption of membrane integrity in Pseudomonas aeruginosa ATCC 9027 assessed as increase in fluorescence intensity at 1 to 8 times MIC by SYTOX green dye based fluorescence analysis; assay type: subcellular; settings: DDE = dose-dependent effect
Staphylococcus aureus [15] = test: Induction of cell death in Staphylococcus aureus ATCC 29213 assessed as residual living cells at 8 times MIC incubated for 2 hrs by SYTO 9/PI staining based fluorescence analysis relative to control; assay type: functional
Lipoteichoic acid [16] = test: Displacement of BODIPY-TR-cadaverine from Bacillus subtilis Lipoteichoic acid at 2 times MIC measured for 30 mins by fluorescence based microplate reader assay relative to control
Lipoteichoic acid [17] = test: Displacement of BODIPY-TR-cadaverine from Bacillus subtilis Lipoteichoic acid at 4 times MIC measured for 30 mins by fluorescence based microplate reader assay relative to control
Escherichia coli [18] = test: Induction of drug resistance in Escherichia coli ATCC 25922 assessed as fold change in MIC measured after 19 passages by CLSI based broth dilution method; assay type: functional
[19] = Cytotoxicity against mouse NCTC clone 929 cells assessed as cell viability at 3.125 ug/ml incubated for 24 hrs by CCK-8 assay relative to control; assay type: toxicity, cell-based; settings: at 3.125 µg/mL, read-out: Activity
[20] = Cytotoxicity against mouse NCTC clone 929 cells assessed as cell viability at 12.5 ug/ml incubated for 24 hrs by CCK-8 assay relative to control; assay type: toxicity, cell-based; settings: at 12.5 µg/mL, read-out: Activity
[21] = Cytotoxicity against HEK293 cells assessed as cell viability at 3.125 ug/ml incubated for 24 hrs by CCK-8 assay relative to control; assay type: toxicity, cell-based; settings: human, at 3.125 µg/mL, read-out: Activity
[22] = Cytotoxicity against HEK293 cells assessed as cell viability at 6.25 ug/ml incubated for 24 hrs by CCK-8 assay relative to control; assay type: toxicity, cell-based; settings: human, at 6.25 µg/mL, read-out: Activity
[23] = Cytotoxicity against HEK293 cells assessed as cell viability at 12.5 ug/ml incubated for 24 hrs by CCK-8 assay relative to control; assay type: toxicity, cell-based; settings: human, at 12.5 µg/mL, read-out: Activity
[24] = Cytotoxicity against HEK293 cells assessed as cell viability at 25 ug/ml incubated for 24 hrs by CCK-8 assay relative to control; assay type: toxicity, cell-based; settings: human, at 25 µg/mL, read-out: Activity
[25] = Cytotoxicity against HEK293 cells assessed as cell viability incubated for 24 hrs by CCK-8 assay; assay type: toxicity, cell-based; settings: human
Staphylococcus aureus [26] = test: Antibiofilm activity against Staphylococcus aureus ATCC 29213 assessed reduction in biofilm formation at 0.39 ug/ml measured after 24 hrs by crystal violet staining based assay relative to control; assay type: functional; parameters: scale not given: the % may be the effect or the level left; settings: dose 0.39 µg/ml
Staphylococcus aureus [27] = test: Antibiofilm activity against Staphylococcus aureus ATCC 29213 assessed reduction in biofilm formation at 0.78 ug/ml measured after 24 hrs by crystal violet staining based assay relative to control; assay type: functional; parameters: scale not given: the % may be the effect or the level left; settings: dose 0.78 µg/ml
Escherichia coli [28] = test: Antibiofilm activity against Escherichia coli ATCC 25922 assessed reduction in biofilm formation at 3.125 ug/ml measured after 24 hrs by crystal violet staining based assay relative to control; assay type: functional; parameters: scale not given: the % may be the effect or the level left; settings: dose 3.125 µg/ml
Escherichia coli [29] = test: Antibiofilm activity against Escherichia coli ATCC 25922 assessed reduction in biofilm formation at 6.25 ug/ml measured after 24 hrs by crystal violet staining based assay relative to control; assay type: functional; parameters: scale not given: the % may be the effect or the level left; settings: dose 6.25 µg/ml
Staphylococcus aureus [30] = test: Antibacterial activity against Staphylococcus aureus ATCC 29213 assessed as eradication of preformed bacterial biofilm by measuring residual biofilm viability at […] ug/ml incubated for 24 hrs by crystal violet staining based assay relative to control; assay type: functional; settings: dose […] microg/ml, 1.56 ug/mL
Staphylococcus aureus [31] = test: Antibacterial activity against Staphylococcus aureus ATCC 29213 assessed as eradication of preformed bacterial biofilm by measuring residual biofilm viability at 6.25 ug/ml incubated for 24 hrs by crystal violet staining based assay relative to control; assay type: functional; settings: dose 6.25 µg/ml
Escherichia coli [32] = test: Antibacterial activity against Escherichia coli ATCC 25922 assessed as eradication of preformed bacterial biofilm by measuring residual biofilm viability at 0.78 ug/ml incubated for 24 hrs by crystal violet staining based assay relative to control; assay type: functional; settings: dose 0.78 µg/ml
[33] = Toxicity in C57BL/6 mouse assessed as signs of toxicity in cornea at 0.8 mg/ml, TOP administered 4 times a day for 3 consecutive days; settings: in vivo, topical_or_ocular, 72 h, time 3 day

With `C=C[C@@](C)(/C=C/c1ccc(OCCCCN(CCCN(C)C)CCCN(C)C)cc1)CCC=C(C)C` the MIC (Staphylococcus aureus [1]) was 3.12 mg/L (≈ 6.28 µM), the MIC (Staphylococcus aureus [2]) was 1.56 mg/L (≈ 3.13 µM) and the HC50 at 1 h [3] was 113 µg/mL. The MIC (Pseudomonas aeruginosa) was 3.12 mg/L (≈ 6.28 µM), the MIC (Klebsiella pneumoniae [4]) was 3.12 mg/L (≈ 6.28 µM) and the MIC (Klebsiella pneumoniae [5]) was 3.12 mg/L (≈ 6.28 µM). For the same compound, the “fold change (FC)” value (Staphylococcus aureus [6]) was <2, the “fold change (FC)” value (Staphylococcus aureus [7]) was <2 and the “fold change (FC)” value (Staphylococcus aureus [8]) was <2. The “fold change (FC)” value (Staphylococcus aureus [9]) was <2, the “fold change (FC)” value (Acinetobacter baumannii) was <2 and the “fold change (FC)” value (Escherichia coli [10]) was <2. The “log(activity)” value (Staphylococcus aureus [11]) was 3.52, the “log(activity)” value (Escherichia coli [12]) was 4.28 and the Activity (Cell membrane [13]) was “Dde”. The Activity (Cell membrane [14]) was “Dde”, the Activity (Staphylococcus aureus [15]) was 2.2% and the Activity (Lipoteichoic acid [16]) was 35.3%. The Activity (Lipoteichoic acid [17]) was 37.2%, the fold change (FC) (Escherichia coli [18]) was < 4 and the viability at 24 h, 3.125 ug/ml [19] was 88.9%. The viability at 24 h, 12.5 ug/ml [20] was 84.5%, the viability at 24 h, 3.125 ug/ml [21] was 94.1% and the viability at 24 h, 6.25 ug/ml [22] was 93.8%. For the same compound, the viability at 24 h, 12.5 ug/ml [23] was 84.9%, the viability at 24 h, 25 ug/ml [24] was 63.3% and the CC50 at 24 h [25] was 28.6 mg/L (≈ 57.5 µM). For the same compound, the Activity (Staphylococcus aureus [26]) was 1.65%, the Activity (Staphylococcus aureus [27]) was 12.91% and the Activity (Escherichia coli [28]) was 92.62%. The Activity (Escherichia coli [29]) was 95.7%, the Activity (Staphylococcus aureus [30]) was 75.68% and the Activity (Staphylococcus aureus [31]) was 34.11%. For the same compound, the Activity (Escherichia coli [32]) was 91.55% and the Activity [33] was “Non-Toxic”.
